In US20070021441A1 (priority 2003, published 2007):
Where two headings read alike, the source gives them in different places.

System: Pyricularia oryzae
Type: in vivo
Conditions: individual active compound, protective, inoculated next day, assessed after 6 days

Q: `CC1CCN(c2c(-c3c(F)cccc3Cl)c(Cl)nc3ncnn23)CC1` [A] was tested. Which “Efficacy in % of the untreated control” value (16 ppm in the spray liquor) did it give?
A: 35%

Q: And the “Efficacy in % of the untreated control” value (63 ppm in the spray liquor)?
A: 61%

Q: For `C[C@H](Nc1c(-c2c(F)cc(F)cc2F)c(Cl)nc2ncnn12)C(F)(F)F` [B], which “Efficacy in % of the untreated control” value (16 ppm in the spray liquor) is on record?
A: 48%

Q: What about the “Efficacy in % of the untreated control” value (63 ppm in the spray liquor) of the same compound?
A: 61%

Q: What does the source list for `O=C1C2CC=CCC2C(=O)N1SC(Cl)(Cl)Cl` (stereo not shown) [IIa, 2-trichloromethylsulfanyl-3a,4,7,7a-tetrahydroisoindole-1,3-dione]?
A: Efficacy in % of the untreated control (16 ppm in the spray liquor): 0%; Efficacy in % of the untreated control (63 ppm in the spray liquor): 35%

Q: `O=C1c2ccccc2C(=O)N1SC(Cl)(Cl)Cl` [IIb, 2-trichloromethylsulfanylisoindole-1,3-dione] was tested. Which “Efficacy in % of the untreated control” value (16 ppm in the spray liquor) did it give?
A: 0%

Q: And the “Efficacy in % of the untreated control” value (63 ppm in the spray liquor)?
A: 8%

Q: Which results are given for `CC1CCN(c2c(-c3c(F)cc(F)cc3F)c(Cl)nc3ncnn23)CC1` [compound I, 5-chloro-7-(4-methylpiperidin-1-yl)-6-(2,4,6-trifluorophenyl)[1,2,4]triazolo[1,5-a]pyrimidine]?
A: Efficacy in % of the untreated control (16 ppm in the spray liquor): 21%; Efficacy in % of the untreated control (63 ppm in the spray liquor): 48%
